Where a SMILES comes first, the peptide text is derived from it.
Tests used:
NAALADase [1] = molecular target: NAALADase (Homo sapiens, UniProt Q04609); conditions: read-out: Km of NAALADase for NAAG; NAAG as substrate; cited from earlier work
cortical cell cultures = experiment: In vitro toxicity of NAAG (LDH release); format: cell-based, rats; conditions: NAAG 3 μM for 20 minutes
Procedure: Experiments are performed after 21 days in cultures.
At the end of exposure, the cells are washed once with HEPES buffered saline solution and then replaced with serum free modified Earle's basal medium. The cultures are then returned to the CO2 incubator for 24 hour recovery.
This control measurement is subtracted from each experimental point.

NAALADase [2] = molecular target: NAALADase (Rattus norvegicus, UniProt P70627); experiment: In vitro assay of NAALADase activity ([3H]Glu liberated from [3H]NAAG, synaptosomal protein); format: biochemical; conditions: compared with 2-(phosphonomethyl)pentanedioic acid
Procedure: Substrate and product were resolved by anion-exchange liquid chromatography. […] Quisqualate (100 μM) was included in parallel assay tubes to confirm the specificity of the measurements.

Chain of NAALADase (Rattus norvegicus, UniProt P70627) (P70627 whole entry): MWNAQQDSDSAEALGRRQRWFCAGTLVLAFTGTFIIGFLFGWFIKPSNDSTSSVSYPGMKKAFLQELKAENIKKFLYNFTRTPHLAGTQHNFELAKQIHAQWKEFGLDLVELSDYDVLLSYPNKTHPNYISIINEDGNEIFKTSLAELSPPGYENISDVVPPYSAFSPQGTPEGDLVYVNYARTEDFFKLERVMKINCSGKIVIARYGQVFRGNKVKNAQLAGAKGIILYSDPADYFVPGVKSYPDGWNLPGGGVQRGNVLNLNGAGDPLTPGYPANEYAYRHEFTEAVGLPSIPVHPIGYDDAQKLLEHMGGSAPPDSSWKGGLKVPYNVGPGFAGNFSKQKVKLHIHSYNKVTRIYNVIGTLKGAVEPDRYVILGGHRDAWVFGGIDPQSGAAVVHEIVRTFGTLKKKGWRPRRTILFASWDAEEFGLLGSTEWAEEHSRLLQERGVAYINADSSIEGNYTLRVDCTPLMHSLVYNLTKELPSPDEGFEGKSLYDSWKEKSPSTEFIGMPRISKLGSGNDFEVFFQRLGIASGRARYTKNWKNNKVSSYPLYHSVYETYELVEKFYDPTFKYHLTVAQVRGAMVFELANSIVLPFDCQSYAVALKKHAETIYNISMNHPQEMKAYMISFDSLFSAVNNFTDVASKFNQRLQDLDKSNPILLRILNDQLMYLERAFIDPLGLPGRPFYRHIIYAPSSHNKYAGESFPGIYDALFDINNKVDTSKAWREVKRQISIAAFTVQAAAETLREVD
Chain of NAALADase (Homo sapiens, UniProt Q04609) (Q04609 whole entry): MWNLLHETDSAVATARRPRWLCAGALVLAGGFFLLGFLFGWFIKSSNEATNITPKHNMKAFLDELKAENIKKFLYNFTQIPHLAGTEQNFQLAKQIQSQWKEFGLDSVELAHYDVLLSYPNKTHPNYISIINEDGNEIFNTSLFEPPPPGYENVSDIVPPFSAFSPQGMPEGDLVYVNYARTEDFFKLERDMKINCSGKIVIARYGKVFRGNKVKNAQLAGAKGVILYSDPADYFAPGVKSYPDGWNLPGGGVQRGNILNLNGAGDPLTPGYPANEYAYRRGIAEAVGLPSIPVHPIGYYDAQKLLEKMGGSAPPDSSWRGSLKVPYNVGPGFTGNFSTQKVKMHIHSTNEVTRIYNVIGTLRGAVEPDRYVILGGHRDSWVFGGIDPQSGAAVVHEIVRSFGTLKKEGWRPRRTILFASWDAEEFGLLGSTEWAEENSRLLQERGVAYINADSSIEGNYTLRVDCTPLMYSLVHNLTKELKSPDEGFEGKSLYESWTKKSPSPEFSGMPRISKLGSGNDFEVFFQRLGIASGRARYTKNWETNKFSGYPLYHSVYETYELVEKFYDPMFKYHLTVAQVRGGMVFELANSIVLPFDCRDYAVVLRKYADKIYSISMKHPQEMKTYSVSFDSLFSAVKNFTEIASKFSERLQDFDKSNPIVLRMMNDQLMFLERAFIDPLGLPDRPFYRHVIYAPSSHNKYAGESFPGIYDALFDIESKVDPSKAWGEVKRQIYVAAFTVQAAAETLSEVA

SMILES | Km (NAALADase [1]) | % Toxicity (cortical cell cultures) | NAALADase inhibiting activity (in words, by comparison) (NAALADase [2])
CC(=O)N[C@@H](CC(=O)O)C(=O)N[C@@H](CCC(=O)O)C(=O)O [NAAG, N-acetyl-aspartyl-glutamate] (Ac-Asp-Glu-OH) | 540 nM | 3.51% | 
O=C(O)CC(CP(=O)(O)O)C(=O)O (stereo not shown) [2-(phosphonomethyl)succinic acid] |  |  | much lower NAALADase inhibiting activity
O=C(O)CCC(CP(=O)(O)CCC(=O)O)C(=O)O (stereo not shown) [2-[[2-carboxyethyl)hydroxyphosphinol]methyl]pentanedioic acid] |  |  | lower NAALADase inhibiting activity

From patent US20010044459A1, “Hydroxamic acid derivatives” (priority 1997, published 2001)
